From publication PMC10951066, “The self-reactive FVIII T cell repertoire in healthy individuals relies on a short set of epitopes and public clonotypes” (Frontiers in Immunology, 2024) come the findings set out here.

The subject of experiment [1] is CD4 T cells from healthy donors. In words: Large-scale CD4 T cell epitope mapping by IFN-γ ELISPOT (16 donors). It is filed as cell-based, human. An excerpt: PBMCs were purified from the whole blood of anonymous healthy donors, who gave informed consent (Etablissement Français du Sang, Rungis, France), using Ficoll-Paque®. Monocyte-derived dendritic cells (DCs) were produced from cells isolated using Percoll gradient by 5 days of culture in AIM-V medium (Invitrogen, Villebon-sur-Yvette, France) supplemented with 1,000 U/ml recombinant human (rh) IL-4 and rhGM-CSF (both from R&D Systems, Lille, France). Mature DCs were produced by two supplementary days of culture in the presence of LPS (1 µg/ml) and R848 (10µg/ml). CD4 T cells were isolated from autologous PBMCs by positive selection using magnetic labeling with anti-CD4 mAbs conjugated to magnetic microbeads followed by magnetic cell sorting, as recommended by the manufacturer (Miltenyi Biotec, Bergisch Gladbach, Germany). Immature DCs were loaded overnight at 37 °C with either 0.2 µM of rFVIII, 0.2 µM of ovalbumin, or 0.25 µM of KLH in 96-well U-bottom plates, while mature DCs were used for FVIII peptides (10 ug/ml). CD4 T cell lines were generated in vitro in IMDM (Invitrogen) supplemented with 10% human serum, 0.24 mM glutamine, 0.55 mM asparagine, 1.5 mM arginine (all amino acids from Sigma-Aldrich), 50 U/mL penicillin/50 μg/mL of streptomycin (Invitrogen), 20 IU/mL human IL-2, and 17 IU/ml human IL-7 (premium-grade; Miltenyi Biotec) by three once-per-week rounds of stimulation of CD4 T cells (200,000 per well) with autologous DCs (20,000 per well). 10,000 lymphocytes were collected at day 19 from each T cell line (expanded T cells contained in one well) and their specificity was assessed by using IFN-g ELISPOT.
The T cell lines and APCs were plated at equal number for both stimulated and unstimulated control conditions. […] The spot number was determined by using the ELISPOT Reader System (Autoimmun Diagnostika, Ebinger, Germany). HLA restriction was assessed using monoclonal antibodies (10 μg/ml) specific to HLA-DP (B7/21), HLA-DQ (SPVL3), or HLA-DR (L243).
Based on the T cell epitope prediction software NetMHCpan4.0 ([23]), we selected 63 20-mer peptides that are predicted for their ability to bind promiscuously, with a percentile score below 10%, at least four HLA class II molecules from a selection of 15 preponderant HLA-DR alleles in our panel (as shown in ST1). […] A total of 16 healthy donors with unrelated HLA typing (ST2) were used as sources of T cells to identify FVIII-specific CD4 T cell epitopes. Specific T cell lines were generated by in vitro T cell culture using FVIII and KLH. The peptide specificity of the T cell lines raised against FVIII was assessed by two independent IFN-γ ELISPOT using peptide pools and individual peptides. […] Furthermore, four independent healthy donors were used as sources of T cells to characterize the HLA restriction and to assess the reactivity of T cell lines generated with the 18 peptides toward rFVIII. T cell lines were amplified in vitro for 28 days through stimulation with the pool of 18 peptides and then tested through IFN-γ ELISPOT.

The target in a further experiment is HLA-DRB1*0301 (Homo sapiens, UniProt P01903+P01911, A100K/A102G/A103R/A169T/F55Y/I96L/K41T/L162R/M171V/P40S/Q125H/Q178H/Q39Y/R42S/S66N/T106N/T262R/W38E/Y61H). Description: Peptide-MHCII competition binding assay. The note with it: competition ELISA, pH 5.9, peptide 90.000nM – 0.9nM, HLA-DRB1 30 nM, biotinylated peptide 15nM, duplicate wells; ratios below 10 = good binding; reference peptide SFLLTDLINRRTPRVDGQ
On the technique in general: ELISA stands for enzyme-linked immunosorbent assay.

The next experiment concerns the target HLA-DRB1*0401 (Homo sapiens, UniProt P01903+P01911, A100K/A169T/F76Y/I96L/K127E/L162R/M171V/N62H/P40V/Q125Y/R42H/S133A/S149N/S66Y/V115G/V209L/W38E). In words: Peptide-MHCII competition binding assay. Particulars: competition ELISA, pH 5.9, peptide 90.000nM – 0.9nM, HLA-DRB1 30 nM, biotinylated peptide 15nM, duplicate wells; ratios below 10 = good binding; reference peptide […].

The target in a further experiment is HLA-DRB1*0701 (Homo sapiens, UniProt P01903+P01911, A100R/A102G/A103Q/D57E/D86V/E43K/F76Y/K127E/L162R/M171V/P40G/Q125H/Q99D/R33Q/R42Y/R54Q/S133A/S66F/T210M/V115G/Y107V/Y59L/Y89S). In words: Peptide-MHCII competition binding assay. The note with it: competition ELISA, pH 5.9, peptide 90.000nM – 0.9nM, HLA-DRB1 30 nM, biotinylated peptide 15nM, duplicate wells; ratios below 10 = good binding; reference peptide PVDLHAFLSQAVFS

For the sequence “YDTVVITLKNMASHPVSLHA [P100-119, 20-mer FVIII peptide, A1 domain]”, the “nb positive T cell lines” value in experiment [1] (across all 16 donors) was 44. For the same sequence, in experiment [1] (cumulative over peptides ranked by donor coverage), the “cumulative donor coverage (%)” value came to 81%. In addition, the “Donor coverage ( %)” value in experiment [1] (of 16 donors) is 69%. The sequence further came in with a responding donors in experiment [1] (of 16 healthy donors, individual peptide 10 µg/ml) of 11. The “response intensity ( %)” value in experiment [1] (percentage of 872 FVIII-specific T cell lines) is recorded as 5,05%. Besides, the “Ratio IC50 DRB1*0301” value on HLA-DRB1*0301 came out at 30. Moreover, the “Ratio IC50 DRB1*0401” value at HLA-DRB1*0401 is reported as 17. Also, the “Ratio IC50 DRB1*0701” value on HLA-DRB1*0701 amounted to 3.
